In ChEMBL document CHEMBL3751769, “Design, synthesis, and evaluation of semi-conservative mono-carbonyl analogs of curcumin as anti-inflammatory agents against lipopolysaccharide-induced acute lung injury” (Medchemcomm, 2015):
Activity calls are given as the source filed them. No cut-off for these calls is given here.

tested on: Rattus norvegicus; test: Anti-inflammatory activity in Sprague-Dawley rat assessed as decrease in LPS- induced elevation of BALF protein concentration at 20 mg/kg/day, po for 7 days pre-treated before LPS challenge and measured 6 hrs after LPS challenge; type: functional, organism-based; details: not given

SMILES | Activity
COc1cc(/C=C2\CC/C(=C\c3c[nH]c4ccc(Br)cc34)C2=O)ccc1O | Active

tested on: Rattus norvegicus; test: Anti-inflammatory activity in Sprague-Dawley rat assessed as decrease in LPS- induced wet/dry ratio of lung tissue at 20 mg/kg/day, po for 7 days pre-treated before LPS challenge and measured 6 hrs after LPS challenge; type: functional, organism-based; details: not given

SMILES | Activity
COc1cc(/C=C2\CC/C(=C\c3c[nH]c4ccc(Br)cc34)C2=O)ccc1O | Active

tested on: RAW264.7; test: Anti-inflammatory activity in mouse RAW264.7 cells assessed as inhibition of IL-6 production at 10 uM preincubated for 30 mins followed by 0.5 ug/ml LPS addition after 24 hrs by ELISA; type: functional; details: not given

SMILES | inhibition (INH) | inhibition
COc1cc(/C=C2\CC/C(=C\c3cc4ccccc4[nH]3)C2=O)ccc1O | >50% | 
COc1cc(/C=C2\CCC/C(=C\c3cccc(Cl)c3Cl)C2=O)ccc1O |  | Active
COc1cc(/C=C2\CCC/C(=C\c3c(C)cc(C)cc3C)C2=O)ccc1O |  | Active
COc1cc(/C=C2\CCC/C(=C\c3c(F)cccc3F)C2=O)ccc1O |  | Active
COc1cc(/C=C2\CCC/C(=C\c3cc4c(cc3Br)OCO4)C2=O)ccc1O |  | Active
COc1cc(/C=C2\CCC/C(=C\c3cccc(F)c3)C2=O)ccc1O |  | Active
COc1cc(/C=C2\CCC/C(=C\c3ccccc3C(F)(F)F)C2=O)ccc1O |  | Active
COc1cc(/C=C2\CC/C(=C\c3c[nH]c4ccc(Br)cc34)C2=O)ccc1O | >50% | 
COc1cc(/C=C2\CCC/C(=C\c3ccc(Cl)cc3Cl)C2=O)ccc1O |  | Active

tested on: Rattus norvegicus; test: Anti-inflammatory activity in Sprague-Dawley rat assessed as decrease in LPS-induced VCAM1 mRNA expression at 20 mg/kg/day, po for 7 days pre-treated before LPS challenge by real-time qPCR analysis; type: functional; details: not given

SMILES | inhibition in vivo at 20 mg/kg/day
COc1cc(/C=C2\CC/C(=C\c3c[nH]c4ccc(Br)cc34)C2=O)ccc1O | 52.9%

tested on: Rattus norvegicus; test: Anti-inflammatory activity in Sprague-Dawley rat assessed as decrease in LPS-induced IL6 mRNA expression at 20 mg/kg/day, po for 7 days pre-treated before LPS challenge by real-time qPCR analysis; type: functional; details: not given

SMILES | inhibition in vivo at 20 mg/kg/day
COc1cc(/C=C2\CC/C(=C\c3c[nH]c4ccc(Br)cc34)C2=O)ccc1O | 92.9%

tested on: Rattus norvegicus; test: Anti-inflammatory activity in Sprague-Dawley rat assessed as decrease in LPS-induced IL1beta mRNA expression at 20 mg/kg/day, po for 7 days pre-treated before LPS challenge by real-time qPCR analysis; type: functional; details: not given

SMILES | inhibition in vivo at 20 mg/kg/day
COc1cc(/C=C2\CC/C(=C\c3c[nH]c4ccc(Br)cc34)C2=O)ccc1O | 39.2%

tested on: Rattus norvegicus; test: Anti-inflammatory activity in Sprague-Dawley rat assessed as decrease in LPS-induced TNFalpha mRNA expression at 20 mg/kg/day, po for 7 days pre-treated before LPS challenge by real-time qPCR analysis; type: functional; details: not given

SMILES | inhibition in vivo at 20 mg/kg/day
COc1cc(/C=C2\CC/C(=C\c3c[nH]c4ccc(Br)cc34)C2=O)ccc1O | 38.4%

tested on: BEAS-2B; test: Anti-inflammatory activity in human BEAS2B cells assessed as inhibition of LPS-induced IL6 mRNA expression by real-time qPCR analysis; type: functional; parameters: scale not given: the % may be the effect or the level left; details: not given

SMILES | Activity
COc1cc(/C=C2\CC/C(=C\c3c[nH]c4ccc(Br)cc34)C2=O)ccc1O | 30%

tested on: RAW264.7; test: Anti-inflammatory activity in mouse RAW264.7 cells assessed as inhibition of IL-6 production preincubated for 30 mins followed by 0.5 ug/ml LPS addition after 24 hrs by ELISA; type: functional, cell-based; details: not given

SMILES | inhibition
COc1cc(/C=C2\CC/C(=C\c3c[nH]c4ccc(Br)cc34)C2=O)ccc1O | Dose-dependent effect

tested on: Rattus norvegicus; test: Anti-inflammatory activity in Sprague-Dawley rat assessed as decrease in LPS- induced amount of TNFalpha in BALF at 20 mg/kg/day, po for 7 days pre-treated before LPS challenge and measured 6 hrs after LPS challenge by ELISA; type: functional, organism-based; details: not given

SMILES | Activity
COc1cc(/C=C2\CC/C(=C\c3c[nH]c4ccc(Br)cc34)C2=O)ccc1O | Active

tested on: BEAS-2B; test: Anti-inflammatory activity in human BEAS2B cells assessed as inhibition of LPS-induced IL1beta mRNA expression by real-time qPCR analysis; type: functional; parameters: scale not given: the % may be the effect or the level left; details: not given

SMILES | Activity
COc1cc(/C=C2\CC/C(=C\c3c[nH]c4ccc(Br)cc34)C2=O)ccc1O | 55.6%

tested on: RAW264.7; test: Anti-inflammatory activity in mouse RAW264.7 cells assessed as inhibition of TNFalpha production at 10 uM preincubated for 30 mins followed by 0.5 ug/ml LPS addition after 24 hrs by ELISA; type: functional; details: not given

SMILES | inhibition (INH) | inhibition
COc1cc(/C=C2\CC/C(=C\c3cc4ccccc4[nH]3)C2=O)ccc1O | >50% | 
COc1cc(/C=C2\CCC/C(=C\c3cccc(Cl)c3Cl)C2=O)ccc1O |  | Active
COc1cc(/C=C2\CCC/C(=C\c3c(C)cc(C)cc3C)C2=O)ccc1O |  | Active
COc1cc(/C=C2\CCC/C(=C\c3c(F)cccc3F)C2=O)ccc1O |  | Active
COc1cc(/C=C2\CCC/C(=C\c3cc4c(cc3Br)OCO4)C2=O)ccc1O |  | Active
COc1cc(/C=C2\CCC/C(=C\c3cccc(F)c3)C2=O)ccc1O |  | Active
COc1cc(/C=C2\CCC/C(=C\c3ccccc3C(F)(F)F)C2=O)ccc1O |  | Active
COc1cc(/C=C2\CC/C(=C\c3c[nH]c4ccc(Br)cc34)C2=O)ccc1O | >50% | 
COc1cc(/C=C2\CCC/C(=C\c3ccc(Cl)cc3Cl)C2=O)ccc1O |  | Active

tested on: RAW264.7; test: Anti-inflammatory activity in mouse RAW264.7 cells assessed as inhibition of TNFalpha production preincubated for 30 mins followed by 0.5 ug/ml LPS addition after 24 hrs by ELISA; type: functional, cell-based; details: not given

SMILES | inhibition
COc1cc(/C=C2\CC/C(=C\c3c[nH]c4ccc(Br)cc34)C2=O)ccc1O | Dose-dependent effect

tested on: Rattus norvegicus; test: Anti-inflammatory activity in Sprague-Dawley rat assessed as decrease in LPS-induced COX2 mRNA expression at 20 mg/kg/day, po for 7 days pre-treated before LPS challenge by real-time qPCR analysis; type: functional; details: not given

SMILES | inhibition in vivo at 20 mg/kg/day
COc1cc(/C=C2\CC/C(=C\c3c[nH]c4ccc(Br)cc34)C2=O)ccc1O | 77.3%

tested on: Rattus norvegicus; test: Anti-inflammatory activity in Sprague-Dawley rat assessed as decrease in LPS-induced ICAM1 mRNA expression at 20 mg/kg/day, po for 7 days pre-treated before LPS challenge by real-time qPCR analysis; type: functional; details: not given

SMILES | inhibition in vivo at 20 mg/kg/day
COc1cc(/C=C2\CC/C(=C\c3c[nH]c4ccc(Br)cc34)C2=O)ccc1O | 74.1%

tested on: BEAS-2B; test: Anti-inflammatory activity in human BEAS2B cells assessed as inhibition of LPS-induced COX2 mRNA expression by real-time qPCR analysis; type: functional; parameters: scale not given: the % may be the effect or the level left; details: not given

SMILES | Activity
COc1cc(/C=C2\CC/C(=C\c3c[nH]c4ccc(Br)cc34)C2=O)ccc1O | 64.9%

tested on: Rattus norvegicus; test: Anti-inflammatory activity in Sprague-Dawley rat assessed as reduction in LPS-induced histopathological changes at 20 mg/kg/day, po for 7 days pre-treated before LPS challenge and measured 6 hrs after LPS challenge by light microscopic analysis; type: functional, organism-based; details: not given

SMILES | Activity
COc1cc(/C=C2\CC/C(=C\c3c[nH]c4ccc(Br)cc34)C2=O)ccc1O | Active

tested on: Rattus norvegicus; test: Anti-inflammatory activity in Sprague-Dawley rat assessed as decrease in LPS- induced number of neutrophils in BALF at 20 mg/kg/day, po for 7 days pre-treated before LPS challenge and measured 6 hrs after LPS challenge by Wright-Giemsa staining method; type: functional, organism-based; details: not given

SMILES | Activity
COc1cc(/C=C2\CC/C(=C\c3c[nH]c4ccc(Br)cc34)C2=O)ccc1O | Active

tested on: BEAS-2B; test: Anti-inflammatory activity in human BEAS2B cells assessed as inhibition of LPS-induced TNFalpha mRNA expression by real-time qPCR analysis; type: functional; parameters: scale not given: the % may be the effect or the level left; details: not given

SMILES | Activity
COc1cc(/C=C2\CC/C(=C\c3c[nH]c4ccc(Br)cc34)C2=O)ccc1O | 64.5%

tested on: not listed separately; test: Cytotoxicity against human HL-7702 cells assessed as cell viability at 10 uM after 24 hrs by MTT assay; type: cell-based; details: l02, 24 h

SMILES | Activity
COc1cc(/C=C2\CC/C(=C\c3cc4ccccc4[nH]3)C2=O)ccc1O | Non-toxic
COc1cc(/C=C2\CCC/C(=C\c3cccc(Cl)c3Cl)C2=O)ccc1O | Non-toxic
COc1cc(/C=C2\CCC/C(=C\c3c(C)cc(C)cc3C)C2=O)ccc1O | Non-toxic
COc1cc(/C=C2\CCC/C(=C\c3c(F)cccc3F)C2=O)ccc1O | Non-toxic
COc1cc(/C=C2\CCC/C(=C\c3cc4c(cc3Br)OCO4)C2=O)ccc1O | Non-toxic
COc1cc(/C=C2\CCC/C(=C\c3cccc(F)c3)C2=O)ccc1O | Non-toxic
COc1cc(/C=C2\CCC/C(=C\c3ccccc3C(F)(F)F)C2=O)ccc1O | Non-toxic
COc1cc(/C=C2\CC/C(=C\c3c[nH]c4ccc(Br)cc34)C2=O)ccc1O | Non-toxic
COc1cc(/C=C2\CCC/C(=C\c3ccc(Cl)cc3Cl)C2=O)ccc1O | Non-toxic
